Active and inactive are the calls of the source. No rule for the calls is given here.
System: CCRIS mutagenicity, Ames/micronucleus/aberration tests
Assay: CCRIS mutagenicity studies
[1] = Test System: AMES SALMONELLA TYPHIMURIUM, Strain/Indicator: TA98, Metabolic Activation: NONE, Method: STANDARD PLATE
[2] = Test System: AMES SALMONELLA TYPHIMURIUM, Strain/Indicator: TA98, Metabolic Activation: RAT, LIVER, S-9, AROCLOR 1254, Method: STANDARD PLATE
[3] = Test System: AMES SALMONELLA TYPHIMURIUM, Strain/Indicator: TA100, Metabolic Activation: NONE, Method: STANDARD PLATE
[4] = Test System: AMES SALMONELLA TYPHIMURIUM, Strain/Indicator: TA100, Metabolic Activation: RAT, LIVER, S-9, AROCLOR 1254, Method: STANDARD PLATE
[5] = Test System: AMES SALMONELLA TYPHIMURIUM, Strain/Indicator: TA1535, Metabolic Activation: NONE, Method: STANDARD PLATE
[6] = Test System: AMES SALMONELLA TYPHIMURIUM, Strain/Indicator: TA1535, Metabolic Activation: RAT, LIVER, S-9, AROCLOR 1254, Method: STANDARD PLATE
[7] = Test System: AMES SALMONELLA TYPHIMURIUM, Strain/Indicator: TA1537, Metabolic Activation: NONE, Method: STANDARD PLATE
[8] = Test System: AMES SALMONELLA TYPHIMURIUM, Strain/Indicator: TA1537, Metabolic Activation: RAT, LIVER, S-9, AROCLOR 1254, Method: STANDARD PLATE
[9] = Test System: AMES SALMONELLA TYPHIMURIUM, Strain/Indicator: TA102, Metabolic Activation: NONE, Method: STANDARD PLATE
[10] = Test System: AMES SALMONELLA TYPHIMURIUM, Strain/Indicator: TA102, Metabolic Activation: RAT, LIVER, S-9, AROCLOR 1254, Method: STANDARD PLATE

Q: For `CC(=O)O[C@@H]1[C@@H](O)[C@H](O[C@H]2[C@H](OC(=O)[C@H]3CC[C@@H]4[C@H](C3)O[C@@]3(C[C@H](OC(=O)/C=C/c5ccccc5)[C@H](C)CO3)[C@]43CO3)O[C@H](C)[C@@H](O)[C@@H]2OC(C)=O)O[C@H](C)[C@H]1O`, which mutagenic call (Test System: AMES SALMONELLA TYPHIMURIUM, Strain/Indicator: TA98, Metabolic Activation: HAMSTER, LIVER, S-9, AROCLOR 1254, Method: STANDARD PLATE) is on record?
A: inactive; negative

Q: What about the mutagenic call [1] of the same compound?
A: inactive; negative

Q: And the mutagenic call [2]?
A: inactive; negative

Q: And the mutagenic call (Test System: AMES SALMONELLA TYPHIMURIUM, Strain/Indicator: TA100, Metabolic Activation: HAMSTER, LIVER, S-9, AROCLOR 1254, Method: STANDARD PLATE)?
A: inactive; negative

Q: What about the mutagenic call [3] of the same compound?
A: inactive; negative

Q: What about the mutagenic call [4] of the same compound?
A: inactive; negative

Q: What about the mutagenic call (Test System: AMES SALMONELLA TYPHIMURIUM, Strain/Indicator: TA1535, Metabolic Activation: HAMSTER, LIVER, S-9, AROCLOR 1254, Method: STANDARD PLATE) of the same compound?
A: inactive; negative

Q: What about the mutagenic call [5] of the same compound?
A: inactive; negative

Q: And the mutagenic call [6]?
A: inactive; negative

Q: What about the mutagenic call (Test System: AMES SALMONELLA TYPHIMURIUM, Strain/Indicator: TA1537, Metabolic Activation: HAMSTER, LIVER, S-9, AROCLOR 1254, Method: STANDARD PLATE) of the same compound?
A: inactive; negative

Q: What about the mutagenic call [7] of the same compound?
A: inactive; negative

Q: And the mutagenic call [8]?
A: inactive; negative

Q: With `CCOC(=O)/C=C/c1ccc([N+](=O)[O-])o1` as the compound, how does the mutagenic call (Test System: AMES SALMONELLA TYPHIMURIUM, Strain/Indicator: TA98, Metabolic Activation: NONE, Method: PREINCUBATION) read?
A: active; positive

Q: For `CNc1ccc(N=Nc2ccc(N(C)C(C)=O)cc2)cc1`, which mutagenic call (Test System: AMES SALMONELLA TYPHIMURIUM, Strain/Indicator: TA98, Metabolic Activation: RAT, LIVER, S-9, POLYCHLORINATED BIPHENYLS, Method: PREINCUBATION) is on record?
A: active; positive

Q: What about the mutagenic call (Test System: AMES SALMONELLA TYPHIMURIUM, Strain/Indicator: TA100, Metabolic Activation: RAT, LIVER, S-9, POLYCHLORINATED BIPHENYLS, Method: PREINCUBATION) of the same compound?
A: active; positive

Q: Which mutagenic call [1] does the source give for `[Zn]` here?
A: inactive; negative

Q: And the mutagenic call (Test System: AMES SALMONELLA TYPHIMURIUM, Strain/Indicator: TA98, Metabolic Activation: RAT, LIVER, S-9, PHENOBARBITAL, Method: STANDARD PLATE)?
A: inactive; negative

Q: What about the mutagenic call [9] of the same compound?
A: inactive; negative

Q: And the mutagenic call (Test System: AMES SALMONELLA TYPHIMURIUM, Strain/Indicator: TA102, Metabolic Activation: RAT, LIVER, S-9, PHENOBARBITAL, Method: STANDARD PLATE)?
A: inactive; negative

Q: What about the mutagenic call [5] of the same compound?
A: inactive; negative

Q: What about the mutagenic call (Test System: AMES SALMONELLA TYPHIMURIUM, Strain/Indicator: TA1535, Metabolic Activation: RAT, LIVER, S-9, PHENOBARBITAL, Method: STANDARD PLATE) of the same compound?
A: inactive; negative

Q: And the mutagenic call [7]?
A: inactive; negative

Q: And the mutagenic call (Test System: AMES SALMONELLA TYPHIMURIUM, Strain/Indicator: TA1537, Metabolic Activation: RAT, LIVER, S-9, PHENOBARBITAL, Method: STANDARD PLATE)?
A: inactive; negative

Q: And the mutagenic call (Test System: UDS HUMAN AMNION FL CELL LINE, Strain/Indicator: THY INCORP, Metabolic Activation: NONE, Method: LIQUID SCINTILLATION COUNTING)?
A: inactive; negative

Q: For `O=C(CCNNC(=O)c1ccncc1)NCc1ccccc1`, which mutagenic call [1] is on record?
A: inactive; negative

Q: And the mutagenic call [2]?
A: inactive; negative

Q: What about the mutagenic call [3] of the same compound?
A: active; positive

Q: What about the mutagenic call [4] of the same compound?
A: active; positive

Q: And the mutagenic call [5]?
A: active; positive

Q: And the mutagenic call [6]?
A: active; positive

Q: And the mutagenic call [7]?
A: inactive; negative

Q: And the mutagenic call [8]?
A: inactive; negative

Q: With `CCOCC=O` as the compound, how does the mutagenic call (Test System: AMES SALMONELLA TYPHIMURIUM, Strain/Indicator: TA97A, Metabolic Activation: NONE, Method: STANDARD PLATE) read?
A: inactive; negative

Q: And the mutagenic call (Test System: AMES SALMONELLA TYPHIMURIUM, Strain/Indicator: TA97A, Metabolic Activation: RAT, LIVER, S-9, AROCLOR 1254, Method: STANDARD PLATE)?
A: inactive; negative

Q: What about the mutagenic call [1] of the same compound?
A: inactive; negative

Q: What about the mutagenic call [2] of the same compound?
A: inactive; negative

Q: And the mutagenic call [3]?
A: inactive; negative

Q: And the mutagenic call [4]?
A: inactive; negative

Q: And the mutagenic call [9]?
A: inactive; negative

Q: What about the mutagenic call [10] of the same compound?
A: inactive; negative

Q: For `C/C([O-])=C(/N=Nc1cc(S(N)(=O)=O)ccc1[O-])C(=O)Nc1ccccc1.C/C([O-])=C(\N=Nc1cc(S(N)(=O)=O)ccc1[O-])C(=O)Nc1ccccc1.[Co+2]`, which mutagenic call (Test System: MOUSE LYMPHOMA, Strain/Indicator: L5178Y (TK+/TK-), Metabolic Activation: NONE, Method: SUSPENSION/PLATE) is on record?
A: inactive; negative. reevaluation of results: negative

Q: And the mutagenic call (Test System: MOUSE LYMPHOMA, Strain/Indicator: L5178Y (TK+/TK-), Metabolic Activation: RAT, LIVER, S-9, AROCLOR 1254, Method: SUSPENSION/PLATE)?
A: inactive; negative. reevaluation of results: negative

Q: `Oc1ccc(Nc2c3ccccc3nc3ccccc23)cc1` was tested. Which mutagenic call [7] did it give?
A: active; positive

Q: With `c1ccc2c(c1)cc1sc3cccc4ccc2c1c43` as the compound, how does the mutagenic call [1] read?
A: inactive; negative

Q: And the mutagenic call (Test System: AMES SALMONELLA TYPHIMURIUM, Strain/Indicator: TA98, Metabolic Activation: RAT, LIVER, S-9, AROCLOR 1254 (10%), Method: STANDARD PLATE)?
A: active; positive

Q: What about the mutagenic call [3] of the same compound?
A: inactive; negative

Q: And the mutagenic call (Test System: AMES SALMONELLA TYPHIMURIUM, Strain/Indicator: TA100, Metabolic Activation: RAT, LIVER, S-9, AROCLOR 1254 (10%), Method: STANDARD PLATE)?
A: inactive; negative

Q: `N#Cc1ccc(CCl)cc1` was tested. Which mutagenic call [3] did it give?
A: inactive; negative

Q: How did the mutagenic call [7] turn out when `CN(C)CCNC(=O)c1cccc2cc3ccccc3nc12` was run?
A: active; positive

Q: How did the mutagenic call [1] turn out when `N[C@@H](Cc1ccccc1)C(=O)O` was run?
A: inactive; negative

Q: What about the mutagenic call [2] of the same compound?
A: inactive; negative

Q: And the mutagenic call [3]?
A: inactive; negative

Q: What about the mutagenic call [4] of the same compound?
A: inactive; negative

Q: What does the source list for `CCC(CCC(C)O)COC(=O)c1ccccc1C(=O)O` (stereo not given)?
A: mutagenic call (Test System: AMES SALMONELLA TYPHIMURIUM, Strain/Indicator: TA97, Metabolic Activation: NONE, Method: STANDARD PLATE): inactive; negative; mutagenic call (Test System: AMES SALMONELLA TYPHIMURIUM, Strain/Indicator: TA97, Metabolic Activation: RAT, LIVER, S-9, AROCLOR 1254, Method: STANDARD PLATE): inactive; negative; mutagenic call (Test System: AMES SALMONELLA TYPHIMURIUM, Strain/Indicator: TA97, Metabolic Activation: RAT, LIVER, S-9, DI(2-ETHYLHEXYL)PHTHALATE, Method: STANDARD PLATE): inactive; negative; mutagenic call [1]: inactive; negative; mutagenic call [2]: inactive; negative; mutagenic call (Test System: AMES SALMONELLA TYPHIMURIUM, Strain/Indicator: TA98, Metabolic Activation: RAT, LIVER, S-9, DI(2-ETHYLHEXYL)PHTHALATE, Method: STANDARD PLATE): inactive; negative; mutagenic call [3]: inactive; negative; mutagenic call [4]: inactive; negative; mutagenic call (Test System: AMES SALMONELLA TYPHIMURIUM, Strain/Indicator: TA100, Metabolic Activation: RAT, LIVER, S-9, DI(2-ETHYLEXYL)PHTHALATE, Method: STANDARD PLATE): inactive; negative; mutagenic call [9]: inactive; negative; mutagenic call [10]: inactive; negative; mutagenic call (Test System: AMES SALMONELLA TYPHIMURIUM, Strain/Indicator: TA102, Metabolic Activation: RAT, LIVER, S-9, DI(2-ETHYLHEXYL)PHTHALATE, Method: STANDARD PLATE): inactive; negative
